Consider two molecules from patent publication US9884066B2, “Bile acid-basic amino acid conjugates and uses thereof” (priority 2013, dated 2018).

Several values for one entry are separate records, joined by “and”; a condition that tells them apart may be missing. Identical values can stand only once. Like-named read-outs stand apart in the source and are kept apart here.

Data set [1] concerns SREBP1c. The experiment in a line: Liver protein level by Western blot. It counts as in vivo, mice. The following applies: beta-actin as control; FIG. 13C. An excerpt:
(§1) FIG. 13. Effect of CDCArg on lipogenic gene expression and energy expenditure related genes in the liver. Treatments: mice were fed with LFD for 14 weeks or with HFD for 10 weeks. At week 10 the HFD group was divided randomly into two equal groups that were pair fed. One group received HFD, while the other group received HFD+CDCArg. mRNA levels of (A) PGC1α, (B) PPARα. (C) Protein level of sterol regulatory element binding protein 1c (SREBP1). *p<0.05, statistically different from control by student t-test. GAPDH was used as housekeeping normalizing gene.
SREBP1c was analyzed by Western blot analysis using beta-actin as control. Abs: Anti SREBP-1 Santa Cruse (Sc-367); Secondary goat Anti-Rabbit IgG, Jackson ImmunoResearch, Mouse Anti-Actin (612656) BD Transduction Laboratories. Secondary goat Anti-mouse IgG, Jackson ImmunoResearch.

Data set [2] relates to mice fed a high fat diet (HFD). The experiment in a line: Intraperitoneal glucose tolerance test (IPGTT) in HFD-fed mice. It counts as in vivo. Particulars: week fourteen; glucose 2 g/kg i.p., 12 hours-fasted; FIG. 11. An excerpt: FIG. 11. Effect of CDCArg on insulin resistance as evaluated by intra-peritoneal glucose tolerance test (IPGTT). (A) IPGTT performed at weeks eight and (B) fourteen (before and after the beginning of treatment). Values are expressed as mean±SEM (n=8-9 animals per group). Means with * are statistically higher than Control group, p<0.05 (t.test (a) one way ANOVA, Post Hoc dunnett test (b)).

In data set [3] the test system is mice fed a high fat diet (HFD). The experiment in a line: High fat diet (HFD) model in mice, five-week feeding with supplemented diets.
Data set [4] has as its system PGC1α. The experiment in a line: Liver gene expression, mRNA by reverse-transcription and real time PCR. Particulars: GAPDH normalizing gene; FIG. 13A. Type of data set: in vivo, mice.
Source text: as §1
(§2) Gene expression analyses of PPARα and PGC1α were performed by quantifying mRNA levels by reverse-transcription and real time PCR. GAPDH (glyceraldehyde 3-phosphate dehydrogenase) was used as housekeeping normalizing gene. The following primers were used: […]

Data set [5] concerns PPARα. Described as above. It counts as in vivo, mice. Particulars: GAPDH normalizing gene; FIG. 13B.
Source text: as §1, §2

Data set [6] deals with mice fed a high fat diet (HFD). Particulars: for Liver weight: FIG. 12d. An excerpt: Mice were randomly divided into two dietary groups:
1) Control diet: low-fat diet (LFD), 16% calories from fat (n=5);
2) High-fat diet (HFD): 60% calories from fat (mainly palm stearin) (n=16).
In order to determine the effects of CDCArg following the onset of liver steatosis, mice were first treated for 10 weeks with HFD to develop hepatic fat accumulation. Thereafter, the HFD-fed mice were divided to two equal groups (n=8 in each group): (a) continued the previous HFD treatment, and (b) HFD+CDCArg 0.5% w/w. In this part of the experiment mice were pair-fed (15.5 kCal/day per mice). The LFD control group consumed on average the same amount of calories per day per mice. The duration of treatment with CDCArg was four (4) weeks. Food consumption and gain of weight were evaluated.
To assess the impact of CDCArg on intestinal absorption, fecal lipid contents were measured before and after CDCArg consumption. Total lipids were extracted from feces using Folch's method (Folch et al., 1957, J Biol Chem, 226:497-509) after collecting feces during weeks 9-10 and 12-13. […] The effect of CDCArg on insulin resistance was evaluated using intraperitoneal glucose tolerance test (IPGTT). Glucose tolerance was assessed in the mice during the eighth and fourteenth weeks of the study (before and after the beginning of treatment with CDCArg). IPGTT was performed in 12 hours-fasted mice by injecting glucose (2 g/kg in 20% solution) intraperitoneally. Blood samples were obtained by cutting the tail tip and glucose concentration was measured after 0, 30, 60, 90, and 120 minutes.

Data set [7] deals with AMPK. The experiment in a line: Liver AMPK and pAMPK levels by Western blot. Type of data set: in vivo, mice. The procedure:
The levels of AMPK and pAMPK were analyzed using Western blot analysis.

In data set [8] the test system is livers of mice fed a high fat diet (HFD). The experiment in a line: Histological evaluation of livers by H&E staining, scored by Modified Brunt Criteria (five-week HFD model). Type of data set: in vivo, C57BL mice. Particulars: end of week 5; for Portal inflammation / Ballooning and disarray / Fibrosis: score per liver section; for Ballooning and disarray: * = and megakarya; for Fibrosis: ** = oval cell proliferation. The procedure: For liver histology, animals were sacrificed and liver tissues were removed and fixed in 4% formalin at room temperature. Liver sections were subjected to Hematoxylin-Eosin staining (PathoVet Veterinary Pathology Services, Rehovot, Israel).
Histological evaluation of livers was performed by H&E staining at the end of week 5. In the figure, arrows indicate micro and macrovesicular steatosis, and arrow heads indicate hepatocyte ballooning. […] This histological observation was in correlation with the elevated levels of blood liver enzymes SGOT and SGPT described above.

The subject of data set [9] is mice fed a high fat diet (HFD). Particulars: mouse, in vivo.

With `CCOC(=O)[C@H](CCCNC(=N)N)NC(=O)CC[C@@H](C)[C@H]1CC[C@H]2[C@@H]3[C@H](O)C[C@@H]4C[C@H](O)CC[C@]4(C)[C@H]3CC[C@]12C` [CDCArg, Chenodeoxycholyl-Arginine-Ethyl Ester], the “SREBP1c protein expression in the liver” value in data set [1] is “suppress the protein expression”. Further, in data set [2], the “Area under the curve of the glycemic response (IPGTT)” value is “decreasing the area under the curve of the glycemic response” and the “Peak glucose values in the IPGTT” value is reported as “lowering the peak glucose values”. The “Average weight of adipose tissue (testicular fat)” value in data set [3] (end of week 5, compared to HFD alone or HFD+Arg, FIG. 3) was “significantly lower increase in testicular fat weight”. The Average liver weight result in [3] (end of week 5, compared to control diet, FIG. 7) is reported as “no difference in liver weight compared to control”. Moreover, in [3] (five weeks, among groups that consumed a high fat diet, FIG. 2), the “Average body weight (increase)” value was “lowest increase in body weight”. Also, the “Plasma level of insulin” value in data set [3] (five weeks, compared to the HFD group, FIG. 8b) was “significantly decreased”. The “Plasma level of leptin” value in data set [3] (five weeks, compared to the HFD group, FIG. 8c) is “significantly decreased”. The “PGC1α mRNA level in the liver” value in [4] is given as “activated”. The “PPARα mRNA level in the liver” value in data set [5] is recorded as “activated”. Further, in data set [6] (HFD+CDCArg 0.5% w/w for 4 weeks after 10 weeks HFD, vs continued HFD, FIG. 10a), the Body weight gain result is “prevented this weight gain”. For the same molecule, the Adipose tissue weight entry in [6] (HFD+CDCArg compared to the HFD group, FIG. 10b) was “substantially lower”. The “Liver micro and macro steatosis (histological evaluation)” value in data set [6] (HFD+CDCArg vs HFD group, FIG. 12e) was “lesser liver micro and macro steatosis”. Besides, the Liver weight entry in data set [6] (HFD+CDCArg vs HFD group) is listed as “significantly lower”. For the same molecule, the Liver weight entry in data set [6] (HFD+CDCArg vs control (LFD) group) is “even lesser than in control”. Further, in [6] (mouse, in vivo), the “Alkaline phosphatase levels in plasma” value was “not significantly altered” and the Plasma albumin levels result was “significantly higher”. Besides, the SGPT levels result in [6] (plasma, HFD+CDCArg compared with the HFD group, FIG. 12a) was “significantly lower”. Moreover, the SGOT levels result in data set [6] (plasma, HFD+CDCArg compared with the HFD group, FIG. 12b) is “significantly lower”. Moreover, in [6] (weeks 12-13, Folch's method, FIG. 10d), the “Fat contents in feces” value was “significantly higher”. Also, the “Ratio of phosphorylated AMPK (pAMPK) to AMPK” value in data set [7] was “tending to be higher”. Further, in data set [8], the Portal inflammation is 0 and 1; the Ballooning and disarray came out at 0; the Fibrosis was determined as 0. In data set [9], the “General toxicity (plasma creatinine, sodium, potassium and chloride levels)” value was “without toxicity effects”; the “Saturated fat-induced liver damage (blood SGOT, SGPT)” value is recorded as “did not potentiate saturated fat-induced liver damage”.
For `N=C(N)NCCC[C@H](N)C(=O)O` [Arg, L-arginine, reference compound], in data set [3] (end of week 5, FIG. 5a), the “Average triglycerides in the blood” value is “higher level of blood triglycerides”. In addition, the “Average total cholesterol in the blood” value in [3] (end of week 5, compared to control low fat diet, FIG. 4) was “significantly increased levels of total blood cholesterol”. Also, in data set [8] (FIG. 9), the “Liver damage by histology (H&E staining)” value is recorded as “increased liver damage”. In [8], this molecule had a Portal inflammation of 0; a Ballooning and disarray of 0; a Fibrosis of 0.
